Laboratory results from patent US20170008888A1 (KYORIN PHARMACEUTICAL CO., LTD., priority 2014, published 2017).
Where two headings read alike, the source gives them in different places.

How the values were obtained:
FALZ = molecular target: T1, FALZ (Homo sapiens, UniProt Q12830); experiment: Bromodomain binding assay: FALZ
T1 construct: made in house; host or cells: E. coli host derived from the BL21 strain (T7 phage lysate)
Experimental: (§1) T7 phage strains displaying bromodomains were grown in parallel in 24-well blocks in an E. coli host derived from the BL21 strain. E. coli were grown to log-phase and infected with T7 phage from a frozen stock (multiplicity of infection=0.4) and incubated with shaking at 32° C. until lysis (90-150 minutes). The lysates were centrifuged (5,000×g) and filtered (0.2 μm) to remove cell debris. […] The liganded beads were blocked with excess biotin and washed with blocking buffer (SeaBlock (Pierce), 1% BSA, 0.05 Tween 20, 1 mM DTT) to remove unbound ligand and to reduce non-specific phage binding. […] Test compounds (T62 and 46) were prepared as 1000× stocks in 100% DMSO and subsequently diluted 1:10 in monoethylene glycol (MEG) to create stocks at 100× the screening concentration (resulting stock solution is 10% DMSO/90% MEG). The compounds were then diluted directly into the assays such that the final concentration of DMSO and MEG were 0.1% and 0.9%, respectively. All reactions were performed in polystyrene 96-well plates in a final volume of 0.135 ml. […] The bromodomain concentration in the eluates was measured by qPCR. Compounds were assayed for binding activity against a panel of 40 bromodomain-containing proteins.

SMARCA4 = molecular target: T2, SMARCA4 (Homo sapiens, UniProt P51532); experiment: Bromodomain binding assay: SMARCA4
T2 construct: made in house; host or cells: E. coli host derived from the BL21 strain (T7 phage lysate)
T2 sequence (P51532 1453-1564 limits assumed): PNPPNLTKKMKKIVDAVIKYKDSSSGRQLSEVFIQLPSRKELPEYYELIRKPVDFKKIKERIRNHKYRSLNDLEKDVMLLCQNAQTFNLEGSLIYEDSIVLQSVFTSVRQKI
Experimental: as §1

BRD9 = molecular target: T3, BRD9 (Homo sapiens, UniProt Q9H8M2); experiment: Bromodomain binding assay: BRD9
T3 construct: T7 phage strains displaying bromodomains were grown in parallel; made in house; host or cells: E. coli host derived from BL21, infected with T7 phage
T3 sequence (Q9H8M2 136-240 limits assumed, species assumed): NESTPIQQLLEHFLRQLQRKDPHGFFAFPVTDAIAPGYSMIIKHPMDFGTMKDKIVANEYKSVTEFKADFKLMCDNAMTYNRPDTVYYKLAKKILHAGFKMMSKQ
Experimental: as §1

BRD4 = molecular target: T4, BRD4 (Homo sapiens, UniProt O60885); experiment: Bromodomain binding assay: BRD4
T4 construct: read out by qPCR of the phage DNA
Experimental: as §1

GCN5L2 = molecular target: T5, GCN5L2 (Homo sapiens, UniProt Q92830); experiment: Bromodomain binding assay: GCN5L2
T5 construct: made in house; host or cells: E. coli host derived from the BL21 strain (T7 phage lysate)
T5 sequence (Q92830 728-832 limits assumed): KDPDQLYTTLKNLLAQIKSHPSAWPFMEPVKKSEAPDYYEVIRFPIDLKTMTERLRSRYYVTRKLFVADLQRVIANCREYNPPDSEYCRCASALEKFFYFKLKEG
Experimental: as §1

WDR9 = molecular target: T6, WDR9 (Homo sapiens, UniProt Q9NSI6); experiment: Bromodomain binding assay: WDR9
T6 construct: made in house; host or cells: E. coli host derived from the BL21 strain (T7 phage lysate)
T6 sequence (Q9NSI6 1313-1418 limits assumed): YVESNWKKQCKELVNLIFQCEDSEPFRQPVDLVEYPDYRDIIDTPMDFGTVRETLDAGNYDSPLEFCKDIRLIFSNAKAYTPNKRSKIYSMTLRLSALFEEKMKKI
Experimental: as §1

[1] = test system: DNFB-induced ear inflammation mouse model; experiment: DNFB-induced ear inflammation (contact hypersensitivity) mouse model: ear weight; format: in vivo, mouse (Balb/c)
Experimental: In vivo T-cell mediated immune response was examined in a mouse model of CHS using the hapten dinitrofluorobenzene (DNFB) as the induction agent. Method for sensitization and elicitation of DNFB-induced CHS was modified from Xu et al. J. Exp. Med. 1996. 183:1001-1012. On Days 0 and 1 (sensitization), 20 μL of 0.5% v/v DNFB in acetone:olive oil (4:1) was applied to each hindpaw of 8 week old male mice (Balb/c, Charles River Laboratories; 10 mice per group unless otherwise noted). On Day 5 (elicitation) 10 μL of 0.2% v/v DNFB in acetone: olive oil (4:1) was applied to the dorsal surface of the right ear of each animal; 10 μL of acetone: olive oil (4:1) was applied to the dorsal surface of the left ear as control. Treatments were administered by group as indicated in the table below; on days when DNFB was used, the QD and the morning dose of BID as appropriate were administered 30 minutes-1 hr. prior to DNFB application. […] Approximately 24 hours after elicitation (Day 6), a 7 mm tissue punch from the central portion of both ears was collected and wet weights measured. The primary functional assessment was the difference in wet weights of the right (DNFB) vs. left (vehicle) ears compared to the vehicle treatment (Vehicle1-S) as an indicator of inflammation (Table 17). Ear tissue punches were flash frozen, stored at −70° C. and analyzed for cytokines (see below). Body weights of the mice were measured at baseline and at end of study, and there were no significant changes in weight in any treatment group during the study (data not shown).

human PBMCs = experiment: Cytokine response by primary human PBMCs stimulated with PMA/ionomycin or LPS; format: cell-based; conditions: PBMC
Experimental: Freshly isolated human PBMCs were purchased from Astarte Biologics (Redmond, Wash.). Cells were seeded at 2e6 cells/ml in RPMI 1640 (Life Technologies, Grand Island, N.Y.) containing 10% (v/v) charcoal-dextran treated, heat inactivated FBS (Omega Scientific, Tarzana, Calif.), 0.05 mM 2-Mercaptoethanol (Sigma-Aldrich, St. Louis, Mo.), and 1×Pen/Strep Amphotericin B (Lonza, Allendale, N.J.). Cells were pre-treated with 0.1% DMSO or with test compounds for 1 h at 37° C. in a humidified atmosphere at 5% CO2. Compounds were tested at 10 μM down by ⅕ in a 4-point serial dilution series. Cells were then stimulated with either 50 ng/ml phorbol 12-myristate 13-acetate (PMA)(Sigma-Aldrich)+1 μg/ml ionomycin (Life Technologies) or with 100 ng/ml LPS from E. coli 0111:B4 (EMD Millipore, Billerica, Mass.) for 20 h at 37° C. in a humidified atmosphere at 5% CO2. Supernatant was collected and analyzed using the Bio-Plex Pro Human Cytokine 17-Plex Panel (Bio-Rad Laboratories, Hercules, Calif.) as per manufacturer's protocols. Magnetic beads were read on the Bio-Plex MAGPIX multiplex reader instrument using the accompanying xPONENT 4.2 acquisition software (Bio-Rad Laboratories). Data were analyzed via the Bio-Plex Manager software v6.1 (Bio-Rad Laboratories).

[2] = 25 mg/kg PO, BID on Day 5 (elicitation)
[3] = 60 mg/kg PO, BID Days 0-5 (from sensitization)
[4] = 60 mg/kg PO, BID on Day 5 (elicitation)
[5] = 100 ng/ml LPS 20 h, read-out: EC50 (μM) under LPS stimulation, G-CSF
[6] = 100 ng/ml LPS 20 h, read-out: EC50 (μM) under LPS stimulation, GM-CSF
[7] = 100 ng/ml LPS 20 h, read-out: EC50 (μM) under LPS stimulation, IFNγ
[8] = 100 ng/ml LPS 20 h, read-out: EC50 (μM) under LPS stimulation, IL-1β
[9] = 100 ng/ml LPS 20 h, read-out: EC50 (μM) under LPS stimulation, IL-2
[10] = 100 ng/ml LPS 20 h, read-out: EC50 (μM) under LPS stimulation, IL-4
[11] = 100 ng/ml LPS 20 h, read-out: EC50 (μM) under LPS stimulation, IL-6
[12] = 100 ng/ml LPS 20 h, read-out: EC50 (μM) under LPS stimulation, IL-7
[13] = 100 ng/ml LPS 20 h, read-out: EC50 (μM) under LPS stimulation, IL-10
[14] = 100 ng/ml LPS 20 h, read-out: EC50 (μM) under LPS stimulation, IL-12
[15] = 100 ng/ml LPS 20 h, read-out: EC50 (μM) under LPS stimulation, IL-13
[16] = 100 ng/ml LPS 20 h, read-out: EC50 (μM) under LPS stimulation, IL-17A
[17] = 100 ng/ml LPS 20 h, read-out: EC50 (μM) under LPS stimulation, MCP-1
[18] = 100 ng/ml LPS 20 h, read-out: EC50 (μM) under LPS stimulation, TNFα
[19] = PMA/ionomycin 20 h, read-out: EC50 (μM) under PMA/ionomycin stimulation, GM-CSF
[20] = PMA/ionomycin 20 h, read-out: EC50 (μM) under PMA/ionomycin stimulation, IL-4
[21] = PMA/ionomycin 20 h, read-out: EC50 (μM) under PMA/ionomycin stimulation, IL-5
[22] = PMA/ionomycin 20 h, read-out: EC50 (μM) under PMA/ionomycin stimulation, IL-6
[23] = PMA/ionomycin 20 h, read-out: EC50 (μM) under PMA/ionomycin stimulation, IL-7
[24] = PMA/ionomycin 20 h, read-out: EC50 (μM) under PMA/ionomycin stimulation, IL-10
[25] = PMA/ionomycin 20 h, read-out: EC50 (μM) under PMA/ionomycin stimulation, IL-12
[26] = PMA/ionomycin 20 h, read-out: EC50 (μM) under PMA/ionomycin stimulation, IL-13
[27] = PMA/ionomycin 20 h, read-out: EC50 (μM) under PMA/ionomycin stimulation, IL-17A
[28] = PMA/ionomycin 20 h, read-out: EC50 (μM) under PMA/ionomycin stimulation, MCP-1
[29] = PMA/ionomycin 20 h, read-out: EC50 (μM) under PMA/ionomycin stimulation, MIP-1β
[30] = PMA/ionomycin 20 h, read-out: EC50 (μM) under PMA/ionomycin stimulation, TNFα

| Structure (SMILES) | Kd (FALZ) [µM] | Kd (SMARCA4) [µM] | Kd (BRD9) [µM] | Kd (BRD4) [nM] | Kd (GCN5L2) [µM] | Kd (WDR9) [µM] | % Reduction Weight Increase Vs. Vehicle 1 Weight Increase [1, 2] [%] | % Reduction Weight Increase Vs. Vehicle 1 Weight Increase [1, 3] [%] | % Reduction Weight Increase Vs. Vehicle 1 Weight Increase [1, 4] [%] | EC50 (human PBMCs; [5]) [µM] | EC50 (human PBMCs; [6]) [µM] | EC50 (human PBMCs; [7]) [µM] | EC50 (human PBMCs; [8]) [µM] | EC50 (human PBMCs; [9]) [µM] | EC50 (human PBMCs; [10]) [µM] | EC50 (human PBMCs; [11]) [µM] | EC50 (human PBMCs; [12]) [µM] | EC50 (human PBMCs; [13]) [µM] | EC50 (human PBMCs; [14]) [µM] | EC50 (human PBMCs; [15]) [µM] | other results |
| --- | --- | --- | --- | --- | --- | --- | --- | --- | --- | --- | --- | --- | --- | --- | --- | --- | --- | --- | --- | --- | --- |
| CCOc1cc(C(=O)N[C@H]2CC[C@H](O)CC2)ccc1Nc1cc2c(cn1)N(C)C(=O)c1ccccc1N2C [Compound T62] | > 20 | > 20 | > 20 | 97 | > 20 | > 20 |  |  |  |  |  |  |  |  |  |  |  |  |  |  |  |
| CCOc1cc(C(=O)N2CCC(N3CCCC3)CC2)ccc1Nc1cc2c(cn1)N(C)C(=O)c1ccccc1N2C [Compound 46, 3-(2-Ethoxy-4-(4-(pyrrolidin-1-yl)piperidine-1-carbonyl)phenylamino)-5,11-dimethyl-5H-benzo[e]pyrido[3,4-b][1,4]diazepin-10(11H)-one] | > 20 | > 20 | > 20 | 41 | > 20 | > 20 | −39.5 | −39.5 | −40.5 | 2.52 | 2.14 | 0.63 | 1.65 | 3.12 | 5.15 | 2.07 | 4.21 | 0.467 | 0.713 | 3.12 | EC50 (human PBMCs; [16]): > 10 µM; EC50 (human PBMCs; [17]): 0.104 µM; EC50 (human PBMCs; [18]): 0.124 µM; EC50 (human PBMCs; [19]): 3.27 µM; EC50 (human PBMCs; [20]): > 10 µM; EC50 (human PBMCs; [21]): 3.16 µM; EC50 (human PBMCs; [22]): 0.9 µM; EC50 (human PBMCs; [23]): > 10 µM; EC50 (human PBMCs; [24]): 0.181 µM; EC50 (human PBMCs; [25]): > 10 µM; EC50 (human PBMCs; [26]): 4.77 µM; EC50 (human PBMCs; [27]): > 10 µM; EC50 (human PBMCs; [28]): 0.143 µM; EC50 (human PBMCs; [29]): 8.07 µM; EC50 (human PBMCs; [30]): 4.14 µM |
| CCOc1cc(C(=O)N2CCCN(C)CC2)ccc1Nc1cc2c(cn1)N(C)C(=O)c1ccccc1N2C [Compound 8] |  |  |  |  |  |  | −9.4 | −38.5 | −22.6 | 4.95 | 4.04 | 1.67 | 3.92 | 7.93 | 10.9 | 4.49 | 9.89 | 1.09 | 1.95 | 6.9 | EC50 (human PBMCs; [16]): > 10 µM; EC50 (human PBMCs; [17]): 0.237 µM; EC50 (human PBMCs; [18]): 0.304 µM; EC50 (human PBMCs; [19]): 4.67 µM; EC50 (human PBMCs; [20]): > 10 µM; EC50 (human PBMCs; [21]): 3.88 µM; EC50 (human PBMCs; [22]): 2.35 µM; EC50 (human PBMCs; [23]): > 10 µM; EC50 (human PBMCs; [24]): 0.627 µM; EC50 (human PBMCs; [25]): > 10 µM; EC50 (human PBMCs; [26]): 4.22 µM; EC50 (human PBMCs; [27]): > 10 µM; EC50 (human PBMCs; [28]): 0.401 µM; EC50 (human PBMCs; [29]): 4.28 µM; EC50 (human PBMCs; [30]): 8.17 µM |
